Data taken from patent publication US12023348B2, “EGR1 targeting molecules for the treatment of inflammatory and hyperproliferative conditions” (The Medical Research, Infrastructure and Health Services …, priority 2015, dated 2024).
Structures can show the parent of a compound that is named as a salt.

Key:
[1] = test system: SAMD9 promoter; assay: High-throughput luciferase reporter screen in HeLa line stably expressing 585 bp SAMD9 promoter fragment; format: cell-based, human; conditions: fold increase in promoter activity by luciferase assay vs cells treated with vehicle only, test drugs 10 μM, 24 hours; for fold induction at 10 µM: Homo sapiens, HeLa, read-out: SAMD9 expression fold change in HeLa reporter assay
Procedure: HeLa cell lines stably expressing the constructs were generated under neomycin selection. Briefly, pGL4.17 containing a SAMD9 promoter fragment spanning 585 bp upstream to the TSS and an empty pGL4.17 vector were transfected into HeLa cells. Forty eight hours after transfection, standard medium was replaced with medium containing 600 μg/ml G418 (Sigma-Aldrich), cells were kept under G418 selection and the selective medium was replaced approximately every 2-3 days. After two passages, colonies of stable cells were isolated, expanded and frozen for further use.
Test drugs were dispensed at a concentration of 10 μM by a robotic system into 96-well plates containing 9000 cells/well expressing the pGL4.17 reporter construct carrying a 585 bp SAMD9 promoter fragment operably linked to luciferase gene or the empty pGL4.17 luciferase construct (Promega cat. no. E6721). Medium was removed after 24 hours and the cells subjected to Steady-Glo luciferase lysis-substrate solution assay (Promega) as described above. Liquid handling was done with the Tecan (Tecan) Freedom 150 (Robotic & MCA liquid Handling System) and the luciferase reading was done with a robot integrated Tecan Infinite® M1000 reader.
This cell line was then used to robotically screen a total of 1496 compounds obtained from the National Cancer Institute Diversity Set III and Oncology Drugs Set III small molecule libraries.

[2] = test system: SAMD9; assay: SAMD9 RNA expression by qRT-PCR in HeLa cells; format: cell-based, human; conditions: fold increase in RNA gene expression vs cells treated with vehicle only
Procedure: HeLa cells were cultured in DMEM 4.5 g/l glucose medium containing 10% FCS, 1% L-glutamine and 1% penicillin and streptomycin (Biological Industries) and grown at 37° C. and 5% CO2.
Of note, when cells were incubated with CaCx and ApDx (NCI, MA USA), they were grown in the appropriate medium with 0.1% FCS only.
RNA was extracted from cell cultures using an RNA extraction kit (Roche Diagnostics, Mahheim, Germany). cDNA was synthesized from 500 ng of total RNA using the Verso cDNA kit (Thermo Fisher Scientific, Waltham, MA, USA). cDNA PCR amplification was carried out using the Fast SYBR Green Master Mix in a StepOnePlus™ Real-Time PCR System (Applied Biosystems, Foster City, CA, USA) with gene-specific intron-crossing oligonucleotide pairs listed in Table 1 (below). For quantification, standard curves were obtained using serially diluted cDNA amplified in the same qRT-PCR run. The melting temperature (Tm) of the amplified products was measured to confirm the specificity of the reaction conditions. Cycling conditions were as follows: 95° C. for 10 minutes, 95° C. for 10 seconds, 62° C. for 15 seconds, and 72° C. for 25 seconds for a total of 40 cycles. Each sample was analyzed in triplicate. mRNA expression level for target gene was normalized to GAPDH. The results are based the amount of target, normalized to an endogenous reference (IACTB) and relative to a calibrator, as calculated by 2-ΔΔCT. All samples were run in triplicate. The expression levels of target genes were expressed as mRNA relative units.
The potential ability of these 31 molecules to induce SAMD9 expression in cell cultures was then scrutinized.

## COc1cccc2c1C(=O)c1c(O)c3c(c(O)c1C2=O)C[C@@](O)(C(C)=O)C[C@@H]3O[C@H]1C[C@H](N(Cc2ccccc2)Cc2ccccc2)[C@H](O)[C@H](C)O1 [Compound 268242, N,N-Dibenzyldaunorubicin hydrochloride]
[1]
  fold induction at 10 µM: 4.84
[2]
  SAMD9 expression fold change in HeLa cells: 3.66 fold

## COc1cc2c3c(n(C)c(=O)c2cc1OC)-c1cc2c(cc1C3=O)OCO2 [Compound 314622, 5H-[1,3]Dioxolo[5,6]indeno[1,2-c]isoquinoline-5,12-dione, 2,3-dimethoxy-6-methyl-]
[1]
  fold induction at 10 µM: 2.31
[2]
  SAMD9 expression fold change in HeLa cells: 2.51 fold

## CC[C@@]1(O)C[C@H](OC2CC(N(C)C)C(OC3CC(O)C(CC4CC(O)C(O)C(C)O4)C(C)O3)C(C)O2)c2c(cc3c(c2O)C(=O)c2c(O)ccc(O)c2C3=O)[C@H]1C(=O)OC (stereo partly drawn) [Compound 265211, Rhodirubin E]
[1]
  fold induction at 10 µM: 3.36
[2]
  SAMD9 expression fold change in HeLa cells: 1.47 fold

## COc1ccc2c(c1[N+](=O)[O-])CC[C@@H]1[C@@H]2CC[C@]2(C)C(=O)CC[C@@H]12 [Compound 321803, 4-Nitroestrone 3-methyl ether]
[1]
  SAMD9 expression fold change in HeLa reporter assay: 2.71 fold

## COc1ccc(-c2csc(=[N+]3CCCCC3)s2)cc1 [Compound 302358, Piperidinium, 1-[4-(4-methoxyphenyl)-1,3-dithiol-2-ylidene]-, sulfate (1:1)]
[1]
  fold induction at 10 µM: 2.72
[2]
  SAMD9 expression fold change in HeLa cells: 0.84 fold

## COc1ccc(/C=C2\CCc3ccccc3C2=O)cc1OC [Compound 643175, 2-(3,4-Dimethoxybenzylidene)-1-tetralone]
[1]
  fold induction at 10 µM: 2.47
[2]
  SAMD9 expression fold change in HeLa cells: 0.89 fold

## O=C1Oc2ccccc2C(=O)/C1=C1/C=C(c2ccccc2)SS1 [Compound 293927, (3E)-3-(5-phenyl-3H-1,2-dithiol-3-ylidene)-2H-chromene-2,4(3H)-dione]
[1]
  fold induction at 10 µM: 2.82
[2]
  SAMD9 expression fold change in HeLa cells: 1.77 fold

## Cc1cccc(NC(=O)C=Cc2ccc([N+](=O)[O-])cc2)c1 [Compound 139109, N-(3-methylphenyl)-3-(4-nitrophenyl)acrylamide]
[1]
  fold induction at 10 µM: 2.03
[2]
  SAMD9 expression fold change in HeLa cells: 0.72 fold

## Cc1c2cnccc2c(C)c2c1c1ccccc1n2CCOC(=O)c1ccccc1 [Compound 163443, 2-(5,11-dimethyl-6H-pyrido [4,3-b]carbazol-6-yl) ethyl benzoate]
[1]
  fold induction at 10 µM: 2.24
[2]
  SAMD9 expression fold change in HeLa cells: 6.49 fold

## N#CC(NCc1cccc(CNC(C#N)c2ccccc2)c1)c1ccccc1 (stereo not drawn) [Compound 681730, 2,2′-(1,3-phenylenebis (methylene))bis(azanediyl)bis(2-phenylacetonitrile)]
[1]
  fold induction at 10 µM: 2.48
[2]
  SAMD9 expression fold change in HeLa cells: 1.6 fold

## Cc1cc(Cl)ccc1N1C(=O)C(=O)C(c2nc3ccccc3o2)C(=O)C1=O [Compound 623051, 4-(1,3-Benzoxazol-2-yl)-1-(4-chloro-2-methylphenyl)-2,3,5,6-piperidinetetrone]
[1]
  fold induction at 10 µM: 2.74
[2]
  SAMD9 expression fold change in HeLa cells: 0.97 fold

## Nc1ncnc2c1nc(Cl)n2[C@@H]1O[C@@H]2COP(=O)(O)O[C@H]2[C@H]1O [Compound 284751, Adenosine, 8-chloro-, cyclic 3′,5′-(hydrogen phosphate)]
[1]
  fold induction at 10 µM: 2.14
[2]
  SAMD9 expression fold change in HeLa cells: 0.87 fold

## O=C1C(O)=C(CC=C(Cl)Cl)C(=O)c2ccccc21 [Compound 126771, Dichlorolawsone]
[1]
  fold induction at 10 µM: 2.23
[2]
  SAMD9 expression fold change in HeLa cells: 3.27 fold

## COc1c2c(cc3oc(=O)ccc13)OC(C)(C)C=C2 [Compound 35542, Xanthoxylin N]
[1]
  fold induction at 10 µM: 4.08
[2]
  SAMD9 expression fold change in HeLa cells: 4.71 fold

## CCN(CC)CCOc1ccccc1/C=C/c1noc2ccccc12 [Compound 601101, 2-(2-(2-(1,2-Benzisoxazol-3-yl)vinyl)phenoxy)-N,N-diethylethanamine hydrochloride]
[1]
  fold induction at 10 µM: 2.13

## CN(C)C(=S)/N=c1\ss/c(=N\C(=S)N(C)C)n1-c1ccc2c(c1)OCO2 [Compound 622589, 3,3′-[4-(1,3-benzodioxol-5-yl)-1,2,4-dithiazolidine-3,5-diylidene]bis[1,1-dimethyl(thiourea)]]
[1]
  fold induction at 10 µM: 4.32
[2]
  SAMD9 expression fold change in HeLa cells: 1.17 fold

## C[C@@H](CSC(=O)c1ccccc1)C(=O)N1c2ccccc2C[C@@H]1C(=O)O [Compound 604535, (2R)-1-[(2R)-2-methyl-3-phenylcarbonylsulfanyl-propanoyl]-2,3-dihydroindole-2-carboxylic acid]
[1]
  fold induction at 10 µM: 2.26
[2]
  SAMD9 expression fold change in HeLa cells: 1.07 fold

## O=C(c1nc2ccc(Cl)cc2nc1O)C(O)c1ccc2c(c1)OCO2 (stereo not drawn) [Compound 642649, 2-(1,3-Benzodioxol-5-yl)-1-(6-chloro-3-hydroxy-2-quinoxalinyl)-2-hydroxyethanone]
[1]
  fold induction at 10 µM: 2.8
[2]
  SAMD9 expression fold change in HeLa cells: 0.85 fold

## S=C(Nc1nnc(-c2ccccc2)c(-c2ccccc2)n1)N(/N=C/C=C/c1ccccc1)c1ccccc1 [Compound 640637, 3-Phenylacrylaldehyde N′-(5,6-diphenyl-1,2,4-triazin-3-yl)-N-phenylthiosemicarbazone]
[1]
  fold induction at 10 µM: 2.32
[2]
  SAMD9 expression fold change in HeLa cells: 1.16 fold

## CN(C)c1ccc(/C=C2\Cc3ccccc3C2=O)cc1Br [Compound 643163, 2-(3-Bromo-4-dimethylaminobenzylidene)-1-indanone]
[1]
  fold induction at 10 µM: 2.64
[2]
  SAMD9 expression fold change in HeLa cells: 0.79 fold

## CN(C)c1ccc2c(SCC(=O)OCC(=O)[C@@]3(O)CC[C@H]4[C@@H]5CCC6=CC(=O)C=C[C@]6(C)[C@H]5C(=O)C[C@@]43C)c3ccc(N(C)C)cc3nc2c1 [Compound 337851, Predorine]
[1]
  fold induction at 10 µM: 2.37
[2]
  SAMD9 expression fold change in HeLa cells: 1.23 fold

## COc1ccc(/C=C2\Cc3ccccc3C2=O)cc1OC [Compound 643174, 2-(3,4-Dimethoxybenzylidene)-1-indanone]
[1]
  fold induction at 10 µM: 2.17
[2]
  SAMD9 expression fold change in HeLa cells: 1.29 fold

## CN(CCc1ccccn1)c1ccc2c(c1)C(=O)c1ccccc1-2 [Compound 24048, 2-(methyl(2-(2-pyridinyl)ethyl)amino)-9H-fluoren-9-one]
[1]
  fold induction at 10 µM: 2.84
[2]
  SAMD9 expression fold change in HeLa cells: 1.62 fold

## NC(Cc1ccc2oc3cc(=O)c4ccccc4c-3nc2c1)C(=O)O [Compound 672425, 1,2-Benzo-8-(L-alanyl)-3-phenoxazone nitrate salt]
[1]
  fold induction at 10 µM: 2.11
[2]
  SAMD9 expression fold change in HeLa cells: 0.98 fold

## COc1ccc(/C(=N\O)C(c2ccc(OC)cc2)C2C(=O)Oc3ccccc32)cc1 (stereo not drawn) [Compound 641607, 3-(2-(Hydroxyimino)-1,2-bis(4-methoxyphenyl)ethyl)-1-benzofuran-2(3H)-one]
[1]
  fold induction at 10 µM: 3.25
[2]
  SAMD9 expression fold change in HeLa cells: 1.27 fold

## OC(CN1CCCCC1)c1ccc(/C=C/c2ccc(Cl)cc2)cc1 (stereo not drawn) [Compound 26040]
[1]
  fold induction at 10 µM: 3.38
[2]
  SAMD9 expression fold change in HeLa cells: 1.2 fold

## CCN1C(=O)/C(=C\Nc2ccccc2)S/C1=N\Nc1ncc(CC(=O)Nc2ccccc2C)s1 [Compound 658350, 2-(2-(2-(5-(Anilinomethylene)-3-ethyl-4-oxo-1,3-thiazolidin-2-ylidene)hydrazino)-1,3-thiazol-5-yl)-N-(2-methylphenyl) acetamide]
[1]
  fold induction at 10 µM: 2.03
[2]
  SAMD9 expression fold change in HeLa cells: 1.01 fold

## CCN(CC)CCNc1ccc2nc(C)n3c4ccc(OC)cc4c(=O)c1c23.Cl [Compound 637993, 5-{[2-(diethylamino)ethyl]amino}-8-methoxy-1-methyl-6h-imidazo[4,5,1-de] acridin-6-one hydrochloride (1:1)]
[1]
  fold induction at 10 µM: 3.7
[2]
  SAMD9 expression fold change in HeLa cells: 6.34 fold
